Patent publication EP1201237A1, “Composition comprising an amide or a dialkylsulphoxide derivative for the treatment of cancer” (Virodene Pharmaceutical Holdings (PTY) Ltd., priority 2000, dated 2002)
Read-outs that look alike come from different tables or passages of the source.

Columns and labels:
Mama Carcinoma = assay: Example 2: skin patch treatment of a patient with Mama Carcinoma; assay type: in vivo, human; settings: three weekly treatments, 7.04g patches for 4 hours
[1] = oral study; cited from earlier work
[2] = tested on: HOC-7 ovarian adenocarcinoma cells; assay: ELISA of antigen expression in HOC-7 cells; assay type: cell-based, human
Source text: (§1) (HOC-7) to a malignant cell. This was also found in human colon carcinoma. (Factor - beta 1 is growth factor, that can be up regulated or transformed in human cells.)
(§2) Exposure of HOC-7 ovarian adenocarcinoma cells to regulators of cell differentiation caused inducer-dependent alterations of the antigenic pattern of the cells. […] Stimulation of fibronectin was also seen after addition of transforming growth factor (TGF) - beta 1. […] CA 125, Fibronectin, and desmoplakins I and II. TGF - beta 1 stimulated fibronectin and desmoplakins I and II only.

[3] = inhalation study with rabbits; cited from earlier work
[4] = tested on: metastasised fourth stage breast cancer; assay: Example 1: skin patch treatment of a breast cancer patient; assay type: in vivo, human
Source text: The patient was a person suffering from metastasised fourth stage breast cancer. The primary cancer was in the left breast and had spread to the right breast. The patient had auxiliary left and right swollen lymph glands under both arms, swelling of lymph glands under the chin and a secondary tumour near the crown of the head protruding from the skull which was four fingertips across. The patient was dehydrated and unable to keep down food or water.
A skin patch was applied to the skin adjacent the tumour for six hours. […] The gel served to prevent leakage of liquid DMF from the patches.
Each patch was applied for a period of 6 hours, on alternate days for one week followed by a one week break.

HOC-7 cells = assay: Immunophenotype and growth of HOC-7 cells; assay type: cell-based, human
Source text: Production of EGF and TGF - alpha was not affected by these inducers. Immunocytochemistry. […] The expression of myconcoproteins was inversely related to cell proliferation CA 125, however, seems to be unrelated to cell growth.

Tyrosine Kinase = Tyrosine Kinase Assay kit (non-radioactive # 1534505, Boehringer Mannheim); assay type: biochemical; settings: values only in Appendix images
Source text: The results are set out in the Appendix below. [formula] [formula]

[5] = Single dose study of disposition, safety, tolerability and pharmacokinetics of virodene P058 in healthy volunteers; assay type: in vivo; settings: 7,06 g of DMF transdermally once a week for 8 hours, human subjects
Source text: A draft interim clinical safety report produced by Guy's Drug Research Unit of Kings College and St Thomas' Hospitals' Medical and Dental School is set out below.
A single dose study of the disposition, safety, tolerability and pharmacokinetics of virodene P058 in healthy volunteers.
• ° 5 subjects dosed on day 1 (subjects 001 - 005) • ° 5 subjects dosed on day 14 (subjects 006 - 010) • ° No withdrawals • ° Final follow up for subjects 001 - 005 occurred on day 15 • ° Final follow up for subjects 006 - 010 due on day 28 Table 1.1 -
The first patch was applied at 10h00 on day 1 for subjects 001 - 005 and at 09h20 on […] for subjects 006 - 010 with 10 minute intervals between dosing.
• ° Laboratory Safety Values: No clinically significant changes observed for biochemistry, liver function tests, haematology or coagulation parameters. • ° Vital Signs - There were no obvious clinically significant changes observed • ° Continuous lead [I monitoring - No clinically significant changes observed] • ° 12 kead ECG - No clinically significant changes observed • ° Adverse events are reported in Table 1.2

[6] = in vivo; cited from earlier work
Karposi Sarcoma = assay: Example 3: skin patch treatment of an AIDS patient with Karposi Sarcoma; assay type: in vivo, human
Source text: A third patient was a person suffering from full blown AIDS. The patient had seven tumours which were diagnosed as Karposi Sarcoma.

non-Hodgkins Lymphoma = assay: Example 4: skin patch treatment of a patient with non-Hodgkins Lymphoma; assay type: in vivo, human
Source text: A fourth patient was an adult diagnosed with non-Hodgkins Lymphoma. The patient had not been on chemotherapy and was HIV positive.

[7] = tested on: HOC-7 ovarian adenocarcinoma cells; assay: Immunocytochemistry of HOC-7 cells; assay type: cell-based, human
Source text: as §1, §2

[8] = several 90-day studies; cited from earlier work
myc onco-proteins = assay: In-vitro studies in cell cultures: myc expression; assay type: cell-based
Source text: (§3) Instead of a piling pattern, mono layers of cells in regular parallel orientation formed that were typical of non-malignant fibroblasts. […] Focal Adhesion Kinase (FAK) is activated in response to receptor activation at focal adhesion sites. FAK is a substrate for the oncogenic forms of the src-family of tyrosine kinases. The action of polar agents on oncogenic expression is believed to be the induction of cancer cells to become more benign. It would seem reasonable that to convert a malignant cell to a benign phenotype, there should be some modulation of gene expression causing malignancy in the first place. In the HL-60 human promyelocytic leukemia cells, dimethylsulfoxide (DMSO) reduced the expression of c-myc oncogenes by 80 to 90%. Some brain tumours are regulated by glial-binding growth factors such as Epidermal Growth Factor (EGF) and Platelet Derived Growth Factor (PDGF) both of which are related to oncogenes. The PDGF β-chain gene is the cellular homologue and proto-oncogene of the viral […] oncogene. Cell maturation induced by polar agents (N-MF) as single agents is most likely to be effective in Neuroblastoma and Glioblastoma (as well as leukemia and melanoma). Polar agents easily penetrate the blood brain barrier and sensitize tumour cells to both X-radiation and cis-platinum. […]

FR3T3 fibroblasts = assay: EGF binding and EGF secretion in transfected FR3T3 lines and control cells; assay type: cell-based
Source text: (§4) The high proliferation rate of the ras-3 cells was associated with elevated expression of protein B23. The 19-3 cells. But not the ras-3 cells, expressed cell surface fibronectin.

EGF-transfected cells = assay: Properties of EGF-transfected FR3T3 fibroblasts; assay type: cell-based
[9] = Toxicity of DMF by route of administration; assay type: in vivo; settings: subcutaneous versus oral
ras-transfected cells = assay: Properties of ras-transfected FR3T3 fibroblasts; assay type: cell-based
Source text: as §4

[10] = tested on: chemistry transformed fibroblasts; assay: Phenotype of chemically transformed fibroblasts; assay type: cell-based
[11] = tested on: virus transformed mice kidney cell-lines; assay: Growth pattern of virus transformed kidney cell-lines; assay type: cell-based; settings: growth medium supplemented by 0.5% DMF
Source text: as §3

[12] = DMF level in the patient's blood during patch treatment; assay type: in vivo, human; settings: patches of about 7,064 g DMF
Procedure: For a patient weighing about 60 kg, an amount of about 14 g over a period of 12 hours is required to produce a level of 100 ppm. […] Absorption capability varies from patient to patient depending on factors such as skin-type and skin thickness.
Daily full clinical and psychological evaluations were also conducted.

DNA sequences = assay: In-vitro studies in cell cultures: effect on DNA; assay type: cell-based
Source text: as §3

c-myc oncogenes = assay: c-myc expression in HL-60 cells; assay type: cell-based; settings: HL-60 human promyelocytic leukemia cells
Source text: as §3

For CN(C)C=O [DMF, dimethylformamide], the bleeding (Mama Carcinoma) was “bleeding disappeared”, the pain (Mama Carcinoma) was “less pain” and the “tumour shrunk in diameter” value (Mama Carcinoma; 3 weeks, 53 cm before treatment) was 7 cm. The “NOAEL for developmental effects” value [1] was 44 mg/kg body weight, the “expression of EGF - receptor, CA 125, Fibronectin, and desmoplakins I and II” value [2] was “dose dependently induced” and the “NOAEL for developmental effects” value [3] was 150 mg/m^3. For the same compound, the “temperature of the tumour” value ([4]; during patch treatment) was “dropped to normal”, the “tumour reduced in size” value ([4]; patches 6 hours on alternate days for one week, then one week break) was 1 - 2 mm per week and the “patient's appetite” value ([4]; three days after the treatment began) was “appetite returned”. The tumour diameter ([4]; two days after first 6 hour patch, 32 cm before treatment) was 29,5 cm, the tumour circumference ([4]; two days after first 6 hour patch, 52 cm before treatment) was 51 cm and the cell growth (HOC-7 cells; HOC-7 cells) was “growth inhibition”. The “effectiveness in changing the immunophenotype of HOC-7 cells” value (HOC-7 cells; compared with TGF-beta 1) was “more effective”, the “effect of DMF on PTK” value (Tyrosine Kinase) was “Tyrosine Kinase inhibitor” and the liver enzymes [5] was “does not result in raised liver enzymes”. The serious adverse events [5] was “no serious adverse events”, the toxicity [5] was “non-toxic” and the “acute dermal, oral and inhalation toxicity” value [6] was “low”. For the same compound, the recurrence of tumours (Karposi Sarcoma; after 18 months) was “no tumours had recurred”, the tumours (Karposi Sarcoma; after six treatments) was “disappeared” and the tumours (Karposi Sarcoma; after two weekly treatments, 7.04g patches for 8 hours, seven tumours) was “faded”. The cancer (non-Hodgkins Lymphoma; after eight treatments, 7.04g patches for 8 hours, 8 weeks) was “disappeared”, the recurrence of cancer (non-Hodgkins Lymphoma; eight months later) was “had not recurred” and the “cytoplasmic and surface labeling for CA 125 and disposition of fibronectin into the extracellular matrix” value [7] was “stimulated”. For the same compound, the “membrane staining for epidermal growth factor (EGF) receptor and for desmoplakins I and II” value [7] was “elevated”, the “NOAEL (No-Adverse-observed-Effect-Level)” value [8] was “could not be established” and the “expression of myc onco-proteins” value (myc onco-proteins) was “inhibited”. For the same compound, the “secretion of EGF” value (FR3T3 fibroblasts; 2 transfected lines as well as control cells) was “increased”, the EGF binding (FR3T3 fibroblasts; transfected cell lines) was “in neither case did DMF alter” and the anchorage-independent growth (EGF-transfected cells) was “inhibition”. For the same compound, the “normal cellular morphology and growth rate in monolayer culture” value (EGF-transfected cells) was “restoration”, the “proliferation-associated nucleolar protein B23” value (EGF-transfected cells) was “down-regulation” and the “toxicity, subcutaneously as compared with oral administration” value [9] was 5 - 10 times lower. The fibronectin expression (ras-transfected cells; ras-3 cells) was “did not restore”, the “growth in monolayer culture or under anchorage-independent growth conditions” value (ras-transfected cells; ras-transfected cells, compared with EGF-transfected cells) was “much slighter effect” and the “phenotype of transformed fibroblasts” value [10] was “restoration of a nontransformed phenotype”. For the same compound, the “random piling, non-contact-inhibited growth pattern” value [11] was “marked alteration”, the “DMF blood level obtained” value ([12]; after loss by evaporation) was 100 ppm and the “DMF blood level delivered in theory” value ([12]; theoretical) was 125 - 135 ppm. For the same compound, the “effect on DNA sequences” value (DNA sequences) was “conformational changes and hypomethylation”.
With C[S+](C)[O-] [DMSO, dimethylsulfoxide] the “reduced expression of c-myc oncogenes” value (c-myc oncogenes) was 80 to 90%.
